In US9428536B2, “Immunostimulatory G, U-containing oligoribonucleotides” (Zoetis Belgium SA, priority 2002, dated 2016):

Columns and labels:
[1] = system: wild type murine macrophages; assay: Wild type murine macrophages in the presence of IFN-γ, IL-12 p40 ELISA; assay type: cell-based, mouse; settings: FIG. 6 Panel A, 12 hours, RNA with DOTAP
Experimental: The following murine cells were isolated and incubated with various RNAs and other known TLR ligands in order to assess species-, cell type-, and signaling pathway-specificity: wild type macrophages in the presence of IFN-γ; MyD88-deficient macrophages in the presence of IFN-γ; J774 (mouse macrophage cell line); and RAW 264.7 (mouse macrophage cell line, e.g., ATCC TIB-71). Murine bone macrophages were generated from wild type or MyD88-deficient C57BL/6 mice by culturing bone marrow cells with 50 ng/ml M-CSF for 5 days. Cells were seeded at 25,000 cells/well and treated with 20 ng/ml IFN-γ for 16 hours. The murine macrophage cell lines RAW and J774 were seeded at 10,000 cells/well.
The following test and control agents were examined: R-848 (2 μg/ml), ODN 1668 (CpG DNA; 5′-[…]-3′; SEQ ID NO:7); LPS (1 μg/ml); poly IC (50 μg/ml); Pam3Cys (5 μg/ml); Ionomycin/TPA; the following RNA molecules, each with (“+Lipo”) and without DOTAP (10 μg/200 μl culture well): GUGUUUAC alone (RNA1); GUAGGCAC alone (RNA2); GUGUUUAC in combination with GUAGGCAC (RNA1/2); […] (RNA6; SEQ ID NO:8); […] (RNA9; SEQ ID NO:9); and the following DNA molecules, corresponding to RNA1, RNA2, and RNA1/2: GTGTTTAC alone (DNA1); GTAGGCAC alone (DNA2); and GTGTTTAC in combination with GTAGGCAC (DNA1/2). These RNA and DNA oligonucleotides each contained a phosphorothioate linkage between the penultimate and 3′ terminal nucleoside. RNA6 and RNA9 each contained in addition a phosphorothioate linkage between the penultimate and 5′ terminal nucleoside. RNA6 corresponds to a ribosomal RNA stem loop derived from Listeria monocytogenes. RNA9 corresponds to a stem loop derived from human immunodeficiency virus (HIV, an RNA retrovirus). The cells were cultured for 12 hours and supernatants were harvested. Murine IL-12 p40, IL-6, and TNF-α were measured by ELISA using matched antibody pairs from BD-Pharmingen according to the manufacturer's protocol.

human TLR7 = target: T1, human TLR7 (Homo sapiens, UniProt Q9NYK1); assay: NF-κB luciferase reporter in 293 HEK cells transfected with human TLR7; assay type: cell-based; settings: FIG. 12; transient transfectants; 7 hours stimulation
T1 construct: All full-length TLR fragments were cloned into pGEM-T Easy vector; expressed in transfected cells; host or cells: 293 HEK cells (ATCC), transient electroporation with pcDNA3.1(-) TLR expression plasmid
T1 sequence (Q9NYK1 27-1049): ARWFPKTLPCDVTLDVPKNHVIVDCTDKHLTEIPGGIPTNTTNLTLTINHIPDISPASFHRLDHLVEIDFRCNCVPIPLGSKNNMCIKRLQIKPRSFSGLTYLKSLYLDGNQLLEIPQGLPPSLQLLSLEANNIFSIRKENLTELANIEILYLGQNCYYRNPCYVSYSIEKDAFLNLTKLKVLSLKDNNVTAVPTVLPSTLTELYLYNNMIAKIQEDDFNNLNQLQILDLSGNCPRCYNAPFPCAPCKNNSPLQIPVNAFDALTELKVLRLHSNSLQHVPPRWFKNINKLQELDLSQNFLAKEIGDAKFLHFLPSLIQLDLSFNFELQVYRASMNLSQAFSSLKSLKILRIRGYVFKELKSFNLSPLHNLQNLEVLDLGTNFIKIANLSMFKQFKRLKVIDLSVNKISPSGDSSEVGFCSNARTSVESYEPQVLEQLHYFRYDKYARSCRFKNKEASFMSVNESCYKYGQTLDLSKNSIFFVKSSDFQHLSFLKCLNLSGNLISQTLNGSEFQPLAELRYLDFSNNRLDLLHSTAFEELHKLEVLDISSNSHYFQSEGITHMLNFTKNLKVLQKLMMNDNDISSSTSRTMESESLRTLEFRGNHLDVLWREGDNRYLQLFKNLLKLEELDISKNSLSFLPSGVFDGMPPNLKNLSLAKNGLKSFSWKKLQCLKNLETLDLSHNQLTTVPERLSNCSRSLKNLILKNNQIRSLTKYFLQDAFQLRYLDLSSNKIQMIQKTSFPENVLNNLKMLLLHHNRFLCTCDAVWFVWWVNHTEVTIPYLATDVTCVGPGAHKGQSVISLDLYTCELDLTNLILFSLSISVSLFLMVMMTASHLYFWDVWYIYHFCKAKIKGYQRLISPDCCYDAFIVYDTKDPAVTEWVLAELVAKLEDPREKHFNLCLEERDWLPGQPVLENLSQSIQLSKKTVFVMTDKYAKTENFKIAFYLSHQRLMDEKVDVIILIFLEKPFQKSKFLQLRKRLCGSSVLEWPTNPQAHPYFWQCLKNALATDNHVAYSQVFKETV
Experimental: FIG. 12 depicts the responsiveness of human TLR7 and human TLR8 to ribonucleosides. It was determined that the response by human PBMC to RNA or RVC was mediated by TLR7 or TLR8 and further that the response could be driven by ribonucleosides only. Human 293 cells were either mock-transfected or transfected with human TLR7 or human TLR8 and monitored for responsiveness to ribonucleosides. The open reading frames of human TLR7 (hTLR7) and human TLR8 (hTLR8) were amplified by PCR from a cDNA library of human PBMC using the following primers pairs: for TLR7, 5′-[…]-3′ (SEQ ID NO:15) and 5′-[…]-3′ (SEQ ID NO:16); and for TLR8, 5′-[…]-3′ (SEQ ID NO:17) and 5′-[…]-3′ (SEQ ID NO:18). The sequence information for primer selection was obtained from Genbank accession numbers AF240467 and AF245703. All full-length TLR fragments were cloned into pGEM-T Easy vector (Promega, Mannheim, Germany), excised with NotI, cloned into the expression vector pcDNA 3.1(−) (Invitrogen, Karlsruhe, Germany) and sequenced. Sequences of the coding region of hTLR7 and hTLR8 correspond to the accession numbers AF240467 (SEQ ID NO:25) and AF245703, respectively (SEQ ID NO:29).
For monitoring transient NF-κB activation, 3×10^6 293 HEK cells (ATCC, VA, USA) were electroporated at 200 volt and 960 μF with 1 μg TLR expression plasmid, 20 ng NF-κB luciferase reporter-plasmid and 14 μg of pcDNA3.1(−) plasmid as carrier in 400 μl RPMI medium supplemented with 25% fetal bovine serum (FCS). Cells were seeded at 10^5 cells per well and after over night culture stimulated with R-848 (denoted in FIG. 12 as X; commercially synthesized by GLSynthesis Inc., Worcester, Mass., USA), RVCs or ribonucleosides for a further 7 hours. Stimulated cells were lysed using reporter lysis buffer (Promega, Mannheim, Germany), and lysate was assayed for luciferase activity using a Berthold luminometer (Wildbad, Germany).

response of TLR7 transfectants (NF-κB luciferase) (human TLR7): responded
SMILES: CCOCc1nc2c(N)nc3ccccc3c2n1CC(C)(C)O [R-848, 4-amino-α,α-dimethyl-2-ethoxymethyl-1H-imidazo[4,5-c]quinoline-1-ethanol, reference compound]
IL-12 p40 secretion by wild type murine macrophages [1]: significant amounts
